Laboratory results: PubChem BioAssay (NCI)
Where “and” joins values, the source holds several entries; their conditions need not be identical. Equal entries are not always repeated.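 Five compound concentrations were applied to cells in 96-well plates for 48 hours; endpoints were derived by simple linear interpolation of the resulting dose-response curve. Abbreviation: GI50, concentration required for 50% inhibition of growth. Definition used: TGI = concentration required for complete inhibition of growth.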

What was measured:
Experiment in all cases: DTP human tumour cell line panel, 48 h
KM20L2 colon = test system: KM20L2 colon
SF-539 CNS = test system: SF-539 CNS
PC-3 prostate = test system: PC-3 prostate
NCI-H460 lung = test system: NCI-H460 lung
OVCAR-3 ovarian = test system: OVCAR-3 ovarian
SK-MEL-28 melanoma = test system: SK-MEL-28 melanoma
DMS 114 small cell lung = test system: DMS 114 small cell lung
MOLT-4 leukemia = test system: MOLT-4 leukemia
HCC-2998 colon = test system: HCC-2998 colon
BT-549 breast = test system: BT-549 breast

Structure (SMILES) | GI50 (KM20L2 colon) | TGI (KM20L2 colon) | GI50 (SF-539 CNS) | TGI (SF-539 CNS) | TGI (PC-3 prostate) [µM] | GI50 (NCI-H460 lung) | TGI (NCI-H460 lung) | GI50 (OVCAR-3 ovarian) | TGI (OVCAR-3 ovarian) | GI50 (SK-MEL-28 melanoma) | TGI (SK-MEL-28 melanoma) | GI50 (DMS 114 small cell lung) | TGI (DMS 114 small cell lung) | GI50 (MOLT-4 leukemia) | TGI (MOLT-4 leukemia) | GI50 (HCC-2998 colon) | TGI (HCC-2998 colon) | TGI (BT-549 breast) [µM]
CNc1nc(N(C)C)nc(N(C)C)n1 | > 100 µM and 718 µM | > 100 µM and 3210 µM | > 100 µM and 1350 µM | > 100 µM and 3580 µM | 3960 | > 100 µM and 894 µM | > 100 µM and 3000 µM | > 100 µM and 981 µM | > 100 µM and 2300 µM | > 100 µM and 1240 µM | > 100 µM and 2700 µM | > 100 µM and 527 µM | > 100 µM and 5500 µM | > 100 µM and 1810 µM | > 100 µM and 7060 µM | > 100 µM and 1520 µM | > 100 µM and 3590 µM | 3620
O=P1(O)c2ccccc2Nc2cc(C(F)(F)F)ccc21 |  | > 100 µM |  | > 100 µM | > 100 |  | > 100 µM |  | > 100 µM |  | > 100 µM |  | > 100 µM |  | > 100 µM |  | > 100 µM | > 100
Cc1cc(=O)oc2cc(OCc3nc4ccccc4c(=O)[nH]3)ccc12 |  | > 100 µM |  | > 100 µM |  |  | > 100 µM |  | > 100 µM |  | > 100 µM |  | > 100 µM |  | > 100 µM |  | > 100 µM | 
COc1cc2cccc(NC(=O)c3cc(OC)c(OC)c(OC)c3Br)c2cc1OC |  | > 100 µM |  | 46.8 µM |  |  | 36.5 µM |  | 47.5 µM |  | 41.8 µM |  | 12.8 µM |  | 8.81 µM |  | 85.4 µM | 
COC(=O)C(CC(=O)Nc1ccc(Cl)c(Cl)c1)C(=O)C(=O)NC1C2CC3CC(C2)CC1C3 (centres undefined) |  | > 100 µM |  | > 100 µM |  |  | > 100 µM |  | > 100 µM |  | > 100 µM |  | > 100 µM |  | > 100 µM |  | > 100 µM | 
C[CH2][Sn]([CH2]C)([O]C(=O)c1cccc(F)c1)[O][Sn]([CH2]C)([CH2]C)[O]C(=O)c1cccc(F)c1 | 38.4 µM | > 100 µM | 17 µM | 30.9 µM |  | 33.8 µM | > 100 µM | 78.8 µM | > 100 µM | 16.7 µM | 30.5 µM | 14 µM | 27.3 µM | 31.9 µM | > 100 µM | 76.1 µM | > 100 µM | 
CC12CC3CC(C1)CC(N=[N+]=[N-])(C3)C2 |  | > 100 µM |  | > 100 µM |  |  | > 100 µM |  | > 100 µM |  | > 100 µM |  | > 100 µM |  | > 100 µM |  | > 100 µM | 
O=C(/C=C1/NC(=O)CS1)Nc1ccccc1 |  | > 100 µM |  | > 100 µM |  |  | > 100 µM |  | > 100 µM |  | > 100 µM |  | > 100 µM |  | > 100 µM |  | > 100 µM | 
